Test results as given in PubChem BioAssay (NCI).
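In this assay, cells in 96-well plates receive the compound at five concentrations for 48 hours. Endpoints are linearly interpolated between the surrounding concentrations. The concentration for full growth arrest is given as TGI.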

Assays:
Experiment in all cases: inhibition of tumour cell growth, NCI panel, 48 h
786-0 renal = tested on: 786-0 renal
A498 renal = tested on: A498 renal
ACHN renal = tested on: ACHN renal
BT-549 breast = tested on: BT-549 breast
CAKI-1 renal = tested on: CAKI-1 renal
COLO 205 colon = tested on: COLO 205 colon
DU-145 prostate = tested on: DU-145 prostate
EKVX NSCLC = tested on: EKVX NSCLC
HCC-2998 colon = tested on: HCC-2998 colon
HCT-15 colon = tested on: HCT-15 colon
HOP-62 NSCLC = tested on: HOP-62 NSCLC
HOP-92 NSCLC = tested on: HOP-92 NSCLC
HS 578T breast = tested on: HS 578T breast
HT29 colon = tested on: HT29 colon
IGROV1 ovarian = tested on: IGROV1 ovarian
K-562 leukemia = tested on: K-562 leukemia
KM12 colon = tested on: KM12 colon
LOX IMVI melanoma = tested on: LOX IMVI melanoma
M14 melanoma = tested on: M14 melanoma
MALME-3M melanoma = tested on: MALME-3M melanoma
MCF7 breast = tested on: MCF7 breast
MDA-MB-231 breast = tested on: MDA-MB-231 breast
MDA-MB-435 = tested on: MDA-MB-435
MDA-N = tested on: MDA-N
MOLT-4 leukemia = tested on: MOLT-4 leukemia
NCI-H226 lung = tested on: NCI-H226 lung
NCI-H23 lung = tested on: NCI-H23 lung
NCI-H460 lung = tested on: NCI-H460 lung
NCI-H522 lung = tested on: NCI-H522 lung
NCI/ADR-RES ovarian = tested on: NCI/ADR-RES ovarian
OVCAR-3 ovarian = tested on: OVCAR-3 ovarian
OVCAR-4 ovarian = tested on: OVCAR-4 ovarian
OVCAR-5 ovarian = tested on: OVCAR-5 ovarian
OVCAR-8 ovarian = tested on: OVCAR-8 ovarian
PC-3 prostate = tested on: PC-3 prostate
RPMI-8226 leukemia = tested on: RPMI-8226 leukemia
SF-268 CNS = tested on: SF-268 CNS
SF-295 CNS = tested on: SF-295 CNS
SF-539 CNS = tested on: SF-539 CNS
SK-MEL-28 melanoma = tested on: SK-MEL-28 melanoma
SK-MEL-5 melanoma = tested on: SK-MEL-5 melanoma
SK-OV-3 ovarian = tested on: SK-OV-3 ovarian
SN12C renal = tested on: SN12C renal
SNB-19 CNS = tested on: SNB-19 CNS
SNB-75 CNS = tested on: SNB-75 CNS
SR leukemia = tested on: SR leukemia
SW-620 colon = tested on: SW-620 colon
TK-10 renal = tested on: TK-10 renal
U251 CNS = tested on: U251 CNS
UACC-257 melanoma = tested on: UACC-257 melanoma
UACC-62 melanoma = tested on: UACC-62 melanoma
UO-31 renal = tested on: UO-31 renal
A549 NSCLC = tested on: A549 NSCLC
CCRF-CEM leukemia = tested on: CCRF-CEM leukemia
RXF 393 renal = tested on: RXF 393 renal
SK-MEL-2 melanoma = tested on: SK-MEL-2 melanoma
T-47D breast = tested on: T-47D breast

Measured: TGI

CSC1NC(c2ccc(Cl)cc2)=C(C#N)C(=O)N1C1OCC(OC(C)=O)C(OC(C)=O)C1OC(C)=O (configuration not stated)
not listed: A549 NSCLC | CCRF-CEM leukemia | RXF 393 renal | SK-MEL-2 melanoma | T-47D breast
> 100 µM: all other assays above

O=c1cnn(CCOCP(=O)(O)O)c(=O)[nH]1
not listed: 786-0 renal | HCT-15 colon | OVCAR-4 ovarian | SF-295 CNS | SK-OV-3 ovarian | SR leukemia | UACC-62 melanoma
> 100 µM: all other assays above
